Measured values as given in US12403167B2, “Phenylethanoid glycoside extract from Acanthus ilicifolius L., preparation method thereof and use as anti-liver injury medicament” (OCEAN UNIVERSITY OF CHINA, priority 2019, dated 2025).

Assays:
[1] = test system: CCl4-induced acute liver injury mice; test: Serum ALT, AST, SOD and MDA in CCl4-induced liver injury mice; assay type: in vivo; settings: 150 mg/kg once/d for 3 days before CCl4; blood 8 h after CCl4; n = 8, x ± s
Experimental: (§1) Forty eight C57 mice (20-22 g) of both genders were supplied by the Experimental Animal Center of Hubei Province, China (NO. 42000600033017). The above 48 mice were randomly divided into 6 groups (8 mice each group), and the phenylethanoid glycoside extract of the present disclosure (the phenylethanoid glycoside group, APhGs) were intraperitoneally injected with the doses of 300 mg/kg (high dose group), 150 mg/kg (medium dose group), and 75 mg/kg (low dose group). The positive group was given silybin (150 mg/kg), and the normal group, as well as model group was given normal saline. All groups were treated as above once/d for 3 consecutive days. Two hours after the last administration, the normal group was intraperitoneally injected with 15 μL of olive oil/mouse, and the other groups were intraperitoneally injected with 15 μL of 50% CCl4 (diluted with olive oil 1:1)/mouse. Eight hours later, all the mice were anesthetized. Then blood was collected by cardiac puncture, and liver tissue was collected for testing biochemical indexes and making pathological sections.
The detection of alanine aminotransferase (ALT) and aspartate aminotransferase (AST) of serum samples from each group mice were conducted according to the instructions of ELISA kit for ALT and AST. The absorbances (OD values) of serum ALT and AST at 450 nm were obtained by a microplate reader. The ALT and AST enzyme activities were calculated based on the OD values.
The detection of superoxide dismutase (SOD) and malondialdehyde (MDA) of serum samples from each group of mice were conducted according to the instructions of ELISA kit for SOD and MDA. The OD values of serum SOD at 550 nm and MDA at 532 nm were obtained by a microplate reader, respectively. The SOD and MDA enzyme activities were calculated based on the OD values.
Immunohistochemical analysis software: Image-pro plus 6.0 (Media Cybernetics, Inc., Rockville, MD, USA); experimental data statistical software: GraphPad Prism 7. The results were represented by mean values ±standard deviation (x±s). The difference P<0.05 meant statistically significant.

[2] = test system: L-02 hepatocytes; test: CCl4-induced L-02 hepatocyte damage, CCK-8 cell viability; assay type: cell-based; settings: 20 μg/mL, 15 mM CCl4, 24 h, CCl4 model group 24.22±0.33%
Experimental: L-02 hepatocytes were provided by the China Center for Type Culture Collection (CCTCC). The L-02 hepatocytes were cultured in a medium containing 1640 complete culture medium and DMEM complete medium with 5% CO2 at a constant temperature (37° C.). The cells were harvested in the exponential growth phase. A suspension of 1×10^6 cells/mL was prepared, and then 100 μL of this suspension was added to each well of a 96-well plate with tested medium. The groups were divided into: normal group, negative control group, CCl4 model group, positive group (silybin), and high-, medium-, and low-dosage APhGs groups. After incubation for 24 h, the cells in the experimental group and the positive group were treated with different concentrations of APhGs and silybin. Both the CCl4 model group and the negative control group were added with the same amount of DMSO. Each treatment was repeated five times. […]
Determination of cell viability: 10 μL of CCK8 was added to each well to incubate at 37° C. for 2 h. The culture plates were measured with a microplate reader to obtain the absorbances at 450 nm. The cell viability values were calculated by the following formula: Cell viability (%)=(ODsample−ODblank)×100/(ODcontrol−ODblank)
ODsample was the absorbance of the experimental group, ODcontrol was the absorbance of the negative control group, ODblank was the absorbance of the blank control.

[3] = test system: CCl4-induced acute liver injury mice; test: SOD and MDA in liver tissue homogenate of CCl4-induced liver injury mice; assay type: in vivo; settings: 150 mg/kg once/d for 3 days before CCl4; liver 8 h after CCl4; n = 8, x ± s
Experimental: as §1, with “Then blood was collected by cardiac puncture, and liver tissue was collected for testing biochemical indexes and making pathological sections.” left out
The detection of SOD and MDA of liver homogenate samples from each group mice were conducted according to the instructions of ELISA kit for SOD and MDA. The OD values of liver SOD at 550 nm and MDA at 532 nm were obtained by a microplate reader, respectively. The SOD and MDA enzyme activities were calculated based on the OD values. […]

In the case of COc1cc(C2Oc3cc([C@H]4Oc5cc(O)cc(O)c5C(=O)[C@@H]4O)ccc3OC2CO)ccc1O (stereo partly shown) [Positive group, silybin], the “serum ALT” value [1] is reported as 736.27 U/L, the “serum AST” value [1] is reported as 776.68 U/L and the “serum MDA” value [1] is reported as 8.32 µM. The “serum SOD” value [1] was 743.47 U/mL, the cell survival rate [2] was 35.92±2.15% and the “liver tissue MDA” value [3] was 0.56 ± 0.08 nmol/mg prot. The “liver tissue SOD” value [3] was 610.91 U/mg prot.
